Data as given in US11046672B2, “Indolinones compounds and their use in the treatment of fibrotic diseases” (RESPIVERT LIMITED, priority 2015, dated 2021).
Read-outs that look alike come from different tables or passages of the source.

How the values were obtained:
[1] = tested on: MRC5 cells; test: Cell viability assay in MRC5 cells (MTT)
[2] = target: VEGFR2 (Homo sapiens (Human), UniProt P35968); test: VEGF165 induced phosphorylation of VEGFR2 in endothelial cells (TeloHAEC, HTRF); format: cell-based; conditions: HAEC cells; n = 1 unless otherwise indicated
VEGFR2, sequence (P35968 20-1356): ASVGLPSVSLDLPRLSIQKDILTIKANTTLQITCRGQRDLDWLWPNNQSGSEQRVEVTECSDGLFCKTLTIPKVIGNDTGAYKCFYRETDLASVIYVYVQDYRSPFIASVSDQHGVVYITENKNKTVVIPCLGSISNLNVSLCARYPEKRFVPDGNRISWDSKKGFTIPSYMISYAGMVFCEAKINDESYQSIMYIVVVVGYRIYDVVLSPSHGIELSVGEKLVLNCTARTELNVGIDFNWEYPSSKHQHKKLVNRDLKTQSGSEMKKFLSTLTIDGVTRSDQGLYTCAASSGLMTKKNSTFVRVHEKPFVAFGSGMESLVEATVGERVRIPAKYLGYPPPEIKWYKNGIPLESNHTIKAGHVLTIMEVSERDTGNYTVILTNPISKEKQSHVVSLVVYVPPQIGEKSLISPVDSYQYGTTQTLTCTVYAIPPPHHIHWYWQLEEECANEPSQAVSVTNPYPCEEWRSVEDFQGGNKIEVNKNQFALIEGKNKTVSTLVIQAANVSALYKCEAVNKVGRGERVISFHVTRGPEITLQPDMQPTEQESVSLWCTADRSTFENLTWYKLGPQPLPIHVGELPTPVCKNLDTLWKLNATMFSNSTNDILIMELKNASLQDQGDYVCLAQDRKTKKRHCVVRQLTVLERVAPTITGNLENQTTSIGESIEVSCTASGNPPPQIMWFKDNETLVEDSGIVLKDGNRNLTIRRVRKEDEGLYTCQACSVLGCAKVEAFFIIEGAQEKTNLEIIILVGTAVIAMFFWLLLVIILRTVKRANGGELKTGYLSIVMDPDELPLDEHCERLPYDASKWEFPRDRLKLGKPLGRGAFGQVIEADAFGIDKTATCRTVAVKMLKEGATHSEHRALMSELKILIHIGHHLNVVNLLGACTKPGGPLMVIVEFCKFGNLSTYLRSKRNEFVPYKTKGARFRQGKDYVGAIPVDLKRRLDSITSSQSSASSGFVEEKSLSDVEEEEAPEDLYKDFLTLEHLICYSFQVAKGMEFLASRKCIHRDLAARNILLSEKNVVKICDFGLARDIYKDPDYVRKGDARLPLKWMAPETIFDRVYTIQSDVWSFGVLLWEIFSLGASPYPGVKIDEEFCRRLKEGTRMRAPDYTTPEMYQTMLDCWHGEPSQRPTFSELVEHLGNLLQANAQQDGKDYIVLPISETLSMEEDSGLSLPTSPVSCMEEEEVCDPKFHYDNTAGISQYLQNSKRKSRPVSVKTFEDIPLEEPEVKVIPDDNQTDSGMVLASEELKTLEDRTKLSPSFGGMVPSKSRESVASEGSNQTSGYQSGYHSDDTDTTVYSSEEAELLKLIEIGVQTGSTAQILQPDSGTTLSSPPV

[3] = target: T1, PDGFRβ (Homo sapiens (Human), UniProt P09619); test: Duration of action (washout) against PDGF-BB induced phosphorylation of PDGFRβ in human fetal lung fibroblast cells; format: cell-based; conditions: MRC-5 cells
T1 sequence (P09619 33-1106): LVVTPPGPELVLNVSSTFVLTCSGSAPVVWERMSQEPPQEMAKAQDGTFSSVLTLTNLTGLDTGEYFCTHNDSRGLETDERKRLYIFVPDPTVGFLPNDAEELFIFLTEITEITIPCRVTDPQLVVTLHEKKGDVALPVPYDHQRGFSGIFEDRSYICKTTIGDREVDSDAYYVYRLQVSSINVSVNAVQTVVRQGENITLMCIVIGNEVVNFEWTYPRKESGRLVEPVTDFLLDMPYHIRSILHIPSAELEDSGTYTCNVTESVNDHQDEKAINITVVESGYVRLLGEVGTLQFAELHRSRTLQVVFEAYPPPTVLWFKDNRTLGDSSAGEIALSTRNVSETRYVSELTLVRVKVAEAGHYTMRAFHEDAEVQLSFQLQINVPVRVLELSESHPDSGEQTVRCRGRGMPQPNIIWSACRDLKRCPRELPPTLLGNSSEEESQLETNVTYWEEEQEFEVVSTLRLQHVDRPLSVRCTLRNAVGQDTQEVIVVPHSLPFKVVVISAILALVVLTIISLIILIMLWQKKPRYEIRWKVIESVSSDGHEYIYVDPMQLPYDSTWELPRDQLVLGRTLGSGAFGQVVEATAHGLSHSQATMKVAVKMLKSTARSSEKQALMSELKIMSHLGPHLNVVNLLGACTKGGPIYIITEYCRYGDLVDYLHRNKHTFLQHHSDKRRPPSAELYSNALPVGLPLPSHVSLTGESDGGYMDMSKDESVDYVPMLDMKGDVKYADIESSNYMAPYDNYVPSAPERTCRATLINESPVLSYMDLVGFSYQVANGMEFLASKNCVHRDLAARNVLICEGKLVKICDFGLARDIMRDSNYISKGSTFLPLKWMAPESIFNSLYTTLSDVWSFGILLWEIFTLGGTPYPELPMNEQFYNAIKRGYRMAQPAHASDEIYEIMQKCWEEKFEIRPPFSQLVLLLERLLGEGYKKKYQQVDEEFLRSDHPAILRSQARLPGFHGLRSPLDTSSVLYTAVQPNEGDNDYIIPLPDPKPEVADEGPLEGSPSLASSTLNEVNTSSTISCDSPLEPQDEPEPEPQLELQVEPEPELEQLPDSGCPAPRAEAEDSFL

[4] = target: T1, PDGFRβ; conditions: read-out: Ki PDGFRβ; mean, n = 2 unless otherwise indicated
[5] = PAMPA permeability assay; format: in vitro ADME; conditions: PAMPA; for recovery at 5 hr, 10 μM: pH 7, PAMPA, donor and acceptor compartments; for Papp at 5 h, 10 μM: pH 7, pH 7, 10 μM
[6] = target: T1, PDGFRβ; test: PDGF-BB induced phosphorylation of PDGFRβ in fibroblasts (MRC5 cells, HTRF); format: cell-based; conditions: MRC5 cells; n = 1 unless otherwise indicated; read-out: PDGFBB-induced PDGFRβ phosphorylation in MRC5 cells (IC50)
[7] = Pharmacokinetic measurements in mice (intravenous and intra-nasal dosing); format: in vivo; conditions: mouse; for concentration at 6 h / concentration at 0.1 h / concentration at 1.5 h / concentration at 24 h / Kp at 6 h / Kp at 0.1 h / Kp at 1.5 h: male, C57BL/6J; for concentration at 6 h / concentration at 0.1 h / concentration at 1.5 h / concentration at 24 h: lung, read-out: lung concentration (nM) at time (h); for concentration at 6 h / concentration at 0.1 h / concentration at 1.5 h / concentration at 24 h / BAV (%): mean; for Kp at 6 h / Kp at 0.1 h / Kp at 1.5 h: lung/plasma
[8] = Pharmacokinetic measurements in rats (intravenous and intra-tracheal dosing); format: in vivo; conditions: rat; for concentration at 0.1 h / concentration at 1.5 h / concentration at 24 h: lung, read-out: lung concentration (nM) at time (h); for Kp at 0.1 h / Kp at 1.5 h / Kp at 24 h: lung/plasma

## COC(=O)c1ccc2c(c1)NC(=O)/C2=C(\Nc1ccc(C(=O)N(C)OC)cc1)c1ccccc1 [Example 1, (Z)-Methyl 3-(((4-(methoxy(methyl)carbamoyl)phenyl)amino)(phenyl)methylene)-2-oxoindoline-6-carboxylate]
[1]
  Cell viability at 100 nM (%): 116.6%
  Cell viability at 300 nM (%): 97 (n = 2) %
  Cell viability at 1000 nM (%): 87 (n = 2) %
[2]
  IC50: 32.2 nM

## COC(=O)c1cc2c(cc1C)/C(=C(/Nc1ccc(C(=O)NOCCN3CCN(C)CC3)cc1)c1ccccc1)C(=O)N2 [Example 6, (Z)-Methyl 5-methyl-3-(((4-((2-(4-methylpiperazin-1-yl)ethoxy)carbamoyl)phenyl)amino)(phenyl)methylene)-2-oxoindoline-6-carboxylate]
[3]; after wash-out, rhuPDGF-BB, experiments in Groups 1-4
  % phos: percentage phosphorylation after wash-out relative to maximal phosphorylation (100%): 31.6%
[3]; wash-out
  Duration of action as inhibitors of PDGFRβ compared with nintedanib: longer duration of action
[4]
  Ki: 8.31 nM
[1]
  Cell viability at 100 nM (%): 98.1%
  Cell viability at 300 nM (%): 88.5%
  Cell viability at 1000 nM (%): 77%
[5]
  recovery at 5 hr, 10 μM: 42%
  Papp at 5 h, 10 μM: 0.00649 ×10⁻⁶ cm/s
[6]
  IC50: 6.95 nM
[7]; iv, 0.2 mg/kg, i.v. dosing, 6 h
  concentration at 6 h: 46 nM
[7]; iv, i.v. dosing, 0.1 h
  concentration at 0.1 h: 580 nM
[7]; iv, i.v. dosing, 1.5 h
  concentration at 1.5 h: 168 nM
[7]; iv, i.v. dosing, 24 h
  concentration at 24 h: 13 nM
[7]; other: intra-nasal, i.n. dosing, 0.1 h
  concentration at 0.1 h: 1490 nM
[7]; other: intra-nasal, i.n. dosing, 1.5 h
  concentration at 1.5 h: 986 nM
[7]; other: intra-nasal, i.n. dosing, 6 h
  concentration at 6 h: 258 nM
[7]; other: intra-nasal, i.n. dosing, 24 h
  concentration at 24 h: 84 nM
[7]; iv, 0.2 mg/kg, i.v. dosing, 6 h, read-out: lung/plasma ratio at time(h)
  Kp at 6 h: 65
[7]; iv, i.v. dosing, 0.1 h, read-out: lung/plasma ratio at time(h)
  Kp at 0.1 h: 11
[7]; iv, i.v. dosing, 1.5 h, read-out: lung/plasma ratio at time(h)
  Kp at 1.5 h: 40
[7]; other: intra-nasal, i.n. dosing, 0.1 h, read-out: lung/plasma conc ratio at time(h)
  Kp at 0.1 h: 79
[7]; other: intra-nasal, i.n. dosing, 1.5 h, read-out: lung/plasma conc ratio at time(h)
  Kp at 1.5 h: 398
[7]; other: intra-nasal, i.n. dosing, 6 h, read-out: lung/plasma conc ratio at time(h)
  Kp at 6 h: 607
[7]; 0.1 h
  Lung conc i.n./i.v. Ratio at time (h): 2.6
[7]; 1.5 h
  Lung conc i.n./i.v. Ratio at time (h): 5.9
[7]; 6 h
  Lung conc i.n./i.v. Ratio at time (h): 5.6
[7]; 24 h
  Lung conc i.n./i.v. Ratio at time (h): 6.5
[7]; i.n. dosing (i.n. dose 1 nintedanib, 0.2 examples)
  BAV (%): ~50%
[7]; i.n. dosing, 0.1 h
  BAL % administered dose at time (h): 1%
[7]; i.n. dosing, 1.5 h
  BAL % administered dose at time (h): 0.3%
[7]; i.n. dosing, 6 h
  BAL % administered dose at time (h): 0.1%
[7]; i.n. dosing, 24 h
  BAL % administered dose at time (h): 0.04%
[7]; i.v. dosing, 0.1 h
  BAL % administered dose at time (h): 0.1%
[7]; i.v. dosing, 1.5 h
  BAL % administered dose at time (h): 0.01%
[7]; oral dosing (oral dose 60 mg/kg nintedanib, 10 mg/kg examples)
  BAV (%): <5%
[8]; male, CD, iv, i.v. dosing, 0.1 h
  concentration at 0.1 h: 2990 nM
[8]; male, CD, iv, i.v. dosing, 1.5 h
  concentration at 1.5 h: 1880 nM
[8]; male, CD, iv, i.v. dosing, 24 h
  concentration at 24 h: 173 nM
[8]; male, CD, other: intra-tracheal, i.t. dosing, 0.1 h
  concentration at 0.1 h: 30400 nM
[8]; male, CD, other: intra-tracheal, i.t. dosing, 1.5 h
  concentration at 1.5 h: 11900 nM
[8]; male, CD, other: intra-tracheal, i.t. dosing, 24 h
  concentration at 24 h: 4720 nM
[8]; male, CD, iv, i.v. dosing, 0.1 h, read-out: lung/plasma ratio at time(h)
  Kp at 0.1 h: 103
[8]; male, CD, iv, i.v. dosing, 1.5 h, read-out: lung/plasma ratio at time(h)
  Kp at 1.5 h: 315
[8]; male, CD, iv, i.v. dosing, 24 h, read-out: lung/plasma ratio at time(h)
  Kp at 24 h: 198
[8]; male, CD, other: intra-tracheal, i.t. dosing, 0.1 h, read-out: lung/plasma conc ratio at time(h)
  Kp at 0.1 h: 288
[8]; male, CD, other: intra-tracheal, i.t. dosing, 1.5 h, read-out: lung/plasma conc ratio at time(h)
  Kp at 1.5 h: 2890
[8]; male, CD, other: intra-tracheal, i.t. dosing, 24 h, read-out: lung/plasma conc ratio at time(h)
  Kp at 24 h: 3280
[8]; male, CD, plasma, iv, i.v. dosing
  MRT: 7.9 h
[8]; male, CD, plasma, iv, i.v. dosing (i.v. dose 0.1-0.5 per compound)
  clearance: 132 mL/min/kg
[8]; male, CD, plasma, iv, i.v. dosing, read-out: Vss
  Vd: 63 L/kg
[8]; male, CD, plasma, iv, i.v. dosing, read-out: t½ (converted)
  half-life: 8.1 h
[8]; 0.1 h
  Lung conc i.t./i.v. Ratio at time (h): 10.2
[8]; 1.5 h
  Lung conc i.t./i.v. Ratio at time (h): 6.3
[8]; 24 h
  Lung conc i.t./i.v. Ratio at time (h): 27.3
[8]; i.t. dosing (i.t. dose 0.1-0.5 per compound)
  i.t. BAV (%): 115%
[8]; i.t. dosing, 0.1 h
  BAL % administered dose at time (h): 6%
[8]; i.t. dosing, 1.5 h
  BAL % administered dose at time (h): 3%
[8]; i.t. dosing, 24 h
  BAL % administered dose at time (h): 0.1%
[8]; i.v. dosing, 0.1 h
  BAL % administered dose at time (h): 0.06%
[8]; i.v. dosing, 1.5 h
  BAL % administered dose at time (h): 0.03%
[8]; i.v. dosing, 24 h
  BAL % administered dose at time (h): BQL
[8]; oral dose 3 mg/kg
  Oral BAV (%): <1%

## COC(=O)c1cc2c(cc1C)/C(=C(/Nc1ccc(C(=O)NOCCCN3CCN(C)CC3)cc1)c1ccccc1)C(=O)N2 [Example 64]
[1]
  Cell viability at 100 nM (%): 86.5%
  Cell viability at 300 nM (%): 88.6%
  Cell viability at 1000 nM (%): 73.7%
[5]
  recovery at 5 hr, 10 μM: 59.4%
  Papp at 5 h, 10 μM: 0.0679 ×10⁻⁶ cm/s
[2]
  IC50: 32.2 nM
